We go through 8 compounds from BindingDB's records for doi:10.1124/jpet.301.1.37 (National Institutes of Health, 2002).

Where “and” joins values, the source holds several entries; their conditions need not be identical. Identical values can stand only once.

The target of experiment [1] is T1, VIP peptides (Homo sapiens, UniProt P01282).
T1 sequence (P01282 whole entry): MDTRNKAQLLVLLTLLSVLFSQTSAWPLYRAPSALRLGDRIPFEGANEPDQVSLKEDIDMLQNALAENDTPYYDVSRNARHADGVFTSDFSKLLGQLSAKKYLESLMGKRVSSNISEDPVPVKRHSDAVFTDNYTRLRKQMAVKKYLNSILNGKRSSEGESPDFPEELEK

Experiment [2] has as its target T2, VIP peptides (Cavia porcellus, UniProt P04566).
T2 sequence (P04566 whole entry): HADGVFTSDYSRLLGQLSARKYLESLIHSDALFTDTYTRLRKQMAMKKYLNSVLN

Experiment [3] addresses T3, VIP peptides (Rattus norvegicus, UniProt P01283).
T3 sequence (P01283 whole entry): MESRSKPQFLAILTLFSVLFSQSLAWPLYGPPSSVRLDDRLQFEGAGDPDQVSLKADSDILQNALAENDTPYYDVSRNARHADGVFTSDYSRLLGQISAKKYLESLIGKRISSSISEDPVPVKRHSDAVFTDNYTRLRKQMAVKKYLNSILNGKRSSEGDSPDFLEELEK

On to `CC[C@H](C)[C@H](NC(=O)[C@H](CO)NC(=O)[C@H](CC(N)=O)NC(=O)[C@H](CC(C)C)NC(=O)[C@H](Cc1ccc(O)cc1)NC(=O)[C@H](CCCCN)NC(=O)[C@H](CCCCN)NC(=O)[C@@H](NC(=O)[C@H](C)NC(=O)[C@H](CCSC)NC(=O)[C@H](CCC(N)=O)NC(=O)[C@H](CCCCN)NC(=O)[C@H](CCCN=C(N)N)NC(=O)[C@H](CC(C)C)NC(=O)[C@H](CCCN=C(N)N)NC(=O)[C@@H](NC(=O)[C@H](Cc1ccc(O)cc1)NC(=O)[C@H](CC(N)=O)NC(=O)[C@H](CC(=O)O)NC(=O)[C@@H](NC(=O)[C@@H](Cc1ccccc1)NC(=O)[C@@H](NC(=O)[C@H](C)NC(=O)[C@H](CC(=O)O)NC(=O)[C@H](CO)NC(=O)[C@@H](N)Cc1cnc[nH]1)C(C)C)[C@@H](C)O)[C@@H](C)O)C(C)C)C(=O)N[C@@H](CC(C)C)C(=O)N[C@@H](CC(N)=O)C(N)=O` [VIP [D-Phe6]], for which the Ki (commonly a measure of affinity in units of concentration, obtained from inhibition or displacement) at VIP peptides [1] was 288 nM and 198 nM and 115 nM; at VIP peptides [2] it was 400 nM; on VIP peptides [3], 269 nM and 692 nM and 912 nM.

Regarding “H-HSDAVFTDNYTRLRKQMAVKKYLNSIAN-NH2 [VIP Ala27]”, the inhibition constant Ki at VIP peptides [1] is 0.37 nM and 2.3 nM and 2.5 nM; on VIP peptides [2], 2.4 nM; on VIP peptides [3], 0.59 nM and 4.7 nM and 2 nM.

Turning to “H-HSDAVATDNYTRLRKQMAVKKYLNSILN-NH2 [VIP Ala16]”, the Ki on VIP peptides [1] is 724 nM and 1150 nM and 794 nM; on VIP peptides [2], 2750 nM; on VIP peptides [3], 661 nM and 1860 nM and 2340 nM.

On to `CC[C@H](C)[C@H](NC(=O)[C@H](CO)NC(=O)[C@H](CC(N)=O)NC(=O)[C@H](CC(C)C)NC(=O)[C@@H](Cc1ccc(O)cc1)NC(=O)[C@H](CCCCN)NC(=O)[C@H](CCCCN)NC(=O)[C@@H](NC(=O)[C@H](C)NC(=O)[C@H](CCSC)NC(=O)[C@H](CCC(N)=O)NC(=O)[C@H](CCCCN)NC(=O)[C@H](CCCN=C(N)N)NC(=O)[C@H](CC(C)C)NC(=O)[C@H](CCCN=C(N)N)NC(=O)[C@@H](NC(=O)[C@H](Cc1ccc(O)cc1)NC(=O)[C@H](CC(N)=O)NC(=O)[C@H](CC(=O)O)NC(=O)[C@@H](NC(=O)[C@H](Cc1ccccc1)NC(=O)[C@@H](NC(=O)[C@H](C)NC(=O)[C@H](CC(=O)O)NC(=O)[C@H](CO)NC(=O)[C@@H](N)Cc1cnc[nH]1)C(C)C)[C@@H](C)O)[C@@H](C)O)C(C)C)C(=O)N[C@@H](CC(C)C)C(=O)N[C@@H](CC(N)=O)C(N)=O` [VIP [D-Tyr22]], for which the Ki on VIP peptides [1] is 128 nM and 95.5 nM and 112 nM; at VIP peptides [2] it was 29.5 nM; on VIP peptides [3], 11.8 nM and 28.2 nM and 38.9 nM.

Regarding `CC[C@H](C)[C@H](NC(=O)[C@H](CO)NC(=O)[C@H](CC(N)=O)NC(=O)[C@H](CC(C)C)NC(=O)[C@H](Cc1ccc(O)cc1)NC(=O)[C@H](CCCCN)NC(=O)[C@H](CCCCN)NC(=O)[C@@H](NC(=O)[C@H](C)NC(=O)[C@H](CCSC)NC(=O)[C@H](CCC(N)=O)NC(=O)[C@H](CCCCN)NC(=O)[C@@H](CCCN=C(N)N)NC(=O)[C@H](CC(C)C)NC(=O)[C@H](CCCN=C(N)N)NC(=O)[C@@H](NC(=O)[C@H](Cc1ccc(O)cc1)NC(=O)[C@H](CC(N)=O)NC(=O)[C@H](CC(=O)O)NC(=O)[C@@H](NC(=O)[C@H](Cc1ccccc1)NC(=O)[C@@H](NC(=O)[C@H](C)NC(=O)[C@H](CC(=O)O)NC(=O)[C@H](CO)NC(=O)[C@@H](N)Cc1cnc[nH]1)C(C)C)[C@@H](C)O)[C@@H](C)O)C(C)C)C(=O)N[C@@H](CC(C)C)C(=O)N[C@@H](CC(N)=O)C(N)=O` [VIP [D-Arg14]], the Ki was 10.7 nM and 31.6 nM and 24.6 nM on VIP peptides [1]; 36.4 nM at VIP peptides [2]; 10.5 nM and 22.4 nM and 27.5 nM at VIP peptides [3].

Turning to “H-HSDAVFTDNYTRLRKQMAVKKALNSILN-NH2 [VIP Ala22]”, the Ki is 3.8 nM and 7.6 nM and 7.1 nM at VIP peptides [1]; 8.5 nM on VIP peptides [2]; 1.1 nM and 3.2 nM and 2.8 nM on VIP peptides [3].

With “H-HSDAVFTDNYTRLAKQMAVKKYLNSILN-NH2 [VIP Ala14]”, the inhibitory constant (Ki) was 24.6 nM and 174 nM and 111 nM on VIP peptides [1]; 61.6 nM on VIP peptides [2]; 30 nM and 45.7 nM and 51.3 nM on VIP peptides [3].

For “H-HSAAVFTDNYTRLRKQMAVKKYLNSILN-NH2 [VIP Ala3]”, the Ki at VIP peptides [1] was 74.1 nM and 182 nM and 123 nM; on VIP peptides [2] it was 427 nM; at VIP peptides [3] it was 43.7 nM and 245 nM and 148 nM.
